Results reported in ChEMBL document CHEMBL4421722, “Inhibitors of protein prenyltransferases” (2013).

species: Rattus norvegicus; assay: Inhibition of rat recombinant geranylgeranyltransferase type I expressed in Escherichia coli assessed as residual enzyme activity for geranylgeranylation of K-Ras4B at 50 uM incubated for 30 mins in presence of [3H]GGPP by scintillation counting assay relative to control

| Compound | Activity [%] |
| --- | --- |
| CCS[C@@H]1C[C@@H](c2ccccc2F)N(S(=O)(=O)c2ccc(C)cc2)C[C@H]1C(=O)O | 89.4 |
| CCCCCCS[C@@H]1C[C@@H](c2ccccc2F)N(S(=O)(=O)c2ccc(C)cc2)C[C@H]1C(=O)O | 75.3 |
| COc1ccc([C@@H]2CC=C(C(=O)O)[C@H](c3cccc(Cl)c3)N2S(=O)(=O)c2ccc(Cl)cc2)cc1 | 53.2 |
| Cc1ccc(S(=O)(=O)N2[C@@H](c3ccc(Cl)cc3)C(C(=O)O)=CC[C@H]2c2ccc(F)cc2)cc1 | 64.8 |
| CCOc1ccc([C@@H]2C[C@@H](SCc3ccccc3)[C@H](C(=O)O)CN2S(=O)(=O)c2ccc(C)cc2)cc1 | 50.9 |
| COc1ccc([C@@H]2CC=C(C(=O)O)[C@H](c3ccc(Cl)cc3)N2S(=O)(=O)c2ccc(C)cc2)cc1 | 91.4 |
| COc1ccc(S[C@@H]2C[C@@H](c3ccc(C)cc3)N(S(=O)(=O)c3ccccc3C)C[C@H]2C(=O)O)cc1 | 99 |
| Cc1ccc([C@@H]2C[C@@H](SCCc3ccccc3)[C@H](C(=O)O)CN2S(=O)(=O)c2ccccc2)cc1 | 55.5 |
| CCOc1ccc([C@@H]2CC=C(C(=O)O)[C@H](c3ccc(Br)cc3)N2S(=O)(=O)c2ccc(C)cc2)cc1 | 79.4 |
| COc1ccc([C@@H]2C[C@@H](Sc3ccccc3)[C@H](C(=O)O)CN2S(=O)(=O)c2ccc(C)cc2)cc1OC | 112 |
| Cc1ccc([C@@H]2CC=C(C(=O)O)[C@H](c3ccc(C(C)(C)C)cc3)N2S(=O)(=O)c2ccccc2)cc1 | 81.6 |
| COc1cccc([C@@H]2C[C@@H](SCc3ccccc3)[C@H](C(=O)O)CN2S(=O)(=O)c2ccc(C)cc2)c1 | 35 |
| Cc1ccc([C@@H]2C[C@@H](SC3CCCC3)[C@H](C(=O)O)CN2S(=O)(=O)c2ccccc2C)cc1 | 93.5 |
| COc1ccc([C@@H]2C[C@@H](SCC(C)C)[C@H](C(=O)O)CN2S(=O)(=O)c2ccc(C)cc2)cc1OC | 91.6 |
| Cc1ccc(S(=O)(=O)N2[C@@H](c3ccc(Cl)cc3)C(C(=O)O)=CC[C@H]2c2ccc(Cl)cc2)cc1 | 52.8 |
| COc1ccc([C@@H]2C[C@@H](SCc3ccccc3)[C@H](C(=O)O)CN2S(=O)(=O)c2ccccc2)cc1 | 57.3 |
| CCCS[C@@H]1C[C@@H](c2cccc(Cl)c2)N(S(=O)(=O)c2ccc(C)cc2)C[C@H]1C(=O)O | 78.8 |
| Cc1ccc(S(=O)(=O)N2[C@@H](c3ccc(F)cc3)C(C(=O)O)=CC[C@H]2c2ccccc2F)cc1 | 56 |
| CC(=O)C1=CC[C@@H](c2ccc(C)cc2)N(S(=O)(=O)c2ccccc2C)C1 | 85.3 |
| CCCCCS[C@@H]1C[C@@H](c2ccc(Cl)cc2)N(S(=O)(=O)c2ccccc2C)C[C@H]1C(=O)O | 57.9 |
| Cc1ccc([C@@H]2C[C@@H](SCc3ccccc3)[C@H](C(=O)O)CN2S(=O)(=O)c2ccc(C)cc2)cc1 | 93.1 |
| CCOc1ccc([C@@H]2CC=C(C(=O)O)[C@H](c3ccc(C(C)(C)C)cc3)N2S(=O)(=O)c2ccc(C)cc2)cc1 | 58.7 |
| Cc1ccc(S(=O)(=O)N2[C@@H](c3cccc(Cl)c3)C(C(=O)O)=CC[C@H]2c2cccc(C)c2)cc1 | 57.6 |
| Cc1ccc([C@@H]2CC=C(C(=O)O)[C@H](c3cccc(F)c3)N2S(C)(=O)=O)cc1 | 75 |
| CCS[C@@H]1C[C@@H](c2ccc(CC)cc2)N(S(=O)(=O)c2ccc(C)cc2)C[C@H]1C(=O)O | 84.6 |
| CCCCCCS[C@@H]1C[C@@H](c2ccc3c(c2)OCO3)N(S(=O)(=O)c2ccc(C)cc2)C[C@H]1C(=O)O | 62.7 |

| Compound | Activity [%] |
| --- | --- |
| CCc1ccc([C@@H]2C[C@@H](Sc3ccc(C)cc3)[C@H](C(=O)O)CN2S(=O)(=O)c2ccc(C)cc2)cc1 | 85 |
| Cc1ccc(S(=O)(=O)N2[C@@H](c3cccc(Cl)c3)C(C(=O)O)=CC[C@H]2c2ccc(Cl)cc2)cc1 | 59.2 |
| O=C(O)C1=CC[C@@H](c2ccc(Cl)cc2)N(S(=O)(=O)c2ccc(Cl)cc2)[C@H]1c1cccc(F)c1 | 44.8 |
| CC(=O)C1=CC[C@@H](c2ccc(C)cc2)N(S(C)(=O)=O)C1 | 108 |
| Cc1ccc(S(=O)(=O)N2[C@@H](c3cccc(C)c3)C(C(=O)O)=CC[C@H]2c2ccc(C(C)C)cc2)cc1 | 57.1 |
| Cc1ccc([C@@H]2C[C@@H](SC3CCCC3)[C@H](C(=O)O)CN2S(C)(=O)=O)cc1 | 110 |
| CCCCS[C@@H]1C[C@@H](c2ccc(OC)cc2)N(S(=O)(=O)c2ccc(Cl)cc2)C[C@H]1C(=O)O | 72.9 |
| CCc1ccc([C@@H]2C[C@@H](SCc3ccc(Cl)cc3)[C@H](C(=O)O)CN2S(=O)(=O)c2ccc(C)cc2)cc1 | 43.7 |
| CCS[C@@H]1C[C@@H](c2ccc3c(c2)OCO3)N(S(=O)(=O)c2ccc(C)cc2)C[C@H]1C(=O)O | 91.5 |
| COC(=O)c1ccccc1S(=O)(=O)N1[C@@H](c2ccc(Cl)cc2)C(C(=O)O)=CC[C@H]1c1ccc(C)cc1 | 81.4 |
| Cc1ccc(S(=O)(=O)N2[C@@H](c3cccc(C)c3)C(C(=O)O)=CC[C@H]2c2cccc(F)c2)cc1 | 60.5 |
| COc1ccc([C@@H]2C[C@@H](SCCc3ccccc3)[C@H](C(=O)O)CN2S(=O)(=O)c2ccc(Cl)cc2)cc1 | 75.3 |
| CCc1ccc([C@@H]2C[C@@H](SCc3ccc(C(C)(C)C)cc3)[C@H](C(=O)O)CN2S(=O)(=O)c2ccc(C)cc2)cc1 | 64.4 |
| CCCCS[C@@H]1C[C@@H](c2ccc(C)cc2)N(S(=O)(=O)c2ccccc2)C[C@H]1C(=O)O | 72.6 |
| C=CCS[C@@H]1C[C@@H](c2ccc(Cl)cc2)N(S(=O)(=O)c2ccc(C)cc2)C[C@H]1C(=O)O | 49.1 |
| Cc1ccc([C@@H]2C[C@@H](SCC(C)C)[C@H](C(=O)O)CN2S(=O)(=O)c2ccc(Cl)cc2)cc1 | 66.3 |
| Cc1ccc(S[C@@H]2C[C@@H](c3ccc(Cl)cc3)N(S(=O)(=O)c3ccccc3C)C[C@H]2C(=O)O)cc1 | 74.8 |
| Cc1ccc([C@H]2C(C(=O)O)=CC[C@@H](c3ccc(Cl)cc3)N2S(=O)(=O)c2ccc(Cl)cc2)cc1 | 53.9 |
| Cc1ccc(S(=O)(=O)N2C[C@@H](C(=O)O)[C@H](SC3CCCC3)C[C@H]2c2ccc3c(c2)OCO3)cc1 | 98.1 |
| Cc1ccc([C@@H]2C[C@@H](SCc3ccc(C(C)(C)C)cc3)[C@H](C(=O)O)CN2S(=O)(=O)c2ccc(C)cc2)cc1 | 69.6 |
| Cc1ccc(S(=O)(=O)N2[C@@H](c3ccc(Br)cc3)C(C(=O)O)=CC[C@H]2c2ccc(C#N)cc2)cc1 | 70.6 |
| COc1cccc([C@@H]2CC=C(C(C)=O)CN2S(=O)(=O)c2ccc(C)cc2)c1 | 85 |
| Cc1ccc(S(=O)(=O)N2[C@@H](c3ccc(F)cc3)C(C(=O)O)=CC[C@H]2c2cccc(C)c2)cc1 | 71.2 |
| CCS[C@@H]1C[C@@H](c2ccc(OC)cc2)N(S(=O)(=O)c2ccccc2)C[C@H]1C(=O)O | 89.9 |
| CS(=O)(=O)N1[C@@H](c2cccc(F)c2)C(C(=O)O)=CC[C@H]1c1ccccc1 | 86.6 |
| Cc1ccc([C@@H]2C[C@@H](SCc3ccc(C(C)(C)C)cc3)[C@H](C(=O)O)CN2S(=O)(=O)c2ccc(Cl)cc2)cc1 | 62 |

| Compound | Activity [%] |
| --- | --- |
| COc1ccc([C@@H]2C[C@@H](SC3CCCC3)[C@H](C(=O)O)CN2S(=O)(=O)c2ccc(C)cc2)cc1OC | 112 |
| Cc1ccc(S(=O)(=O)N2[C@@H](c3ccc(Cl)cc3)C(C(=O)O)=CC[C@H]2c2ccccc2)cc1 | 69.7 |
| Cc1ccc(S(=O)(=O)N2[C@@H](c3cccc(C)c3)C(C(=O)O)=CC[C@H]2c2ccccc2)cc1 | 64.9 |
| Cc1ccc([C@@H]2C[C@@H](SCCC(C)C)[C@H](C(=O)O)CN2S(=O)(=O)c2ccccc2C)cc1 | 75.2 |
| Cc1ccc([C@@H]2CC=C(C(=O)O)[C@H](c3ccc(C(C)(C)C)cc3)N2S(C)(=O)=O)cc1 | 78.2 |
| C=CCS[C@@H]1C[C@@H](c2ccc(OC)cc2)N(S(=O)(=O)c2ccccc2C)C[C@H]1C(=O)O | 65.1 |
| CCCCCS[C@@H]1C[C@@H](c2cccc(Cl)c2)N(S(=O)(=O)c2ccc(C)cc2)C[C@H]1C(=O)O | 84.6 |
| COc1cccc([C@@H]2C[C@@H](SCCC(C)C)[C@H](C(=O)O)CN2S(=O)(=O)c2ccc(C)cc2)c1 | 62 |
| Cc1ccc([C@H]2C(C(=O)O)=CC[C@@H](c3cccc(C)c3)N2S(=O)(=O)c2ccc(C)cc2)cc1 | 82.4 |
| CCCCCS[C@@H]1C[C@@H](c2ccccc2)N(S(=O)(=O)c2ccc(C)cc2)C[C@H]1C(=O)O | 77.2 |
| COc1cccc([C@@H]2C[C@@H](SCc3ccc(Cl)cc3)[C@H](C(=O)O)CN2S(=O)(=O)c2ccc(C)cc2)c1 | 34.4 |
| Cc1ccc([C@H]2C(C(=O)O)=CC[C@@H](c3ccc(Cl)cc3)N2S(=O)(=O)c2ccccc2C)cc1 | 61.6 |
| CCS[C@@H]1C[C@@H](c2ccc(C)cc2)N(S(=O)(=O)c2ccc(Cl)cc2)C[C@H]1C(=O)O | 58.3 |
| COc1ccc(S[C@@H]2C[C@@H](c3cccc(OC)c3)N(S(=O)(=O)c3ccc(C)cc3)C[C@H]2C(=O)O)cc1 | 101 |
| CS(=O)(=O)N1[C@@H](c2ccc(Cl)cc2)C(C(=O)O)=CC[C@H]1c1ccccc1 | 82.1 |
| COc1ccc([C@@H]2C[C@@H](SC3CCCC3)[C@H](C(=O)O)CN2S(=O)(=O)c2ccc(Cl)cc2)cc1 | 83.1 |
| COc1cc([C@@H]2C[C@@H](SC3CCCC3)[C@H](C(=O)O)CN2S(=O)(=O)c2ccc(C)cc2)cc(OC)c1OC | 105 |
| C=CCS[C@@H]1C[C@@H](c2ccc(OC)c(OC)c2)N(S(=O)(=O)c2ccc(C)cc2)C[C@H]1C(=O)O | 109 |
| Cc1ccc(S(=O)(=O)N2[C@@H](c3cccc(C)c3)C(C(=O)O)=CC[C@H]2c2ccc3c(c2)OCO3)cc1 | 70.6 |
| C=CCS[C@@H]1C[C@@H](c2ccc(CC)cc2)N(S(=O)(=O)c2ccc(C)cc2)C[C@H]1C(=O)O | 89.6 |
| COC(=O)c1ccccc1S(=O)(=O)N1[C@@H](c2cccc(C)c2)C(C(=O)O)=CC[C@H]1c1ccc(C)cc1 | 54.2 |
| COc1ccc([C@@H]2CC=C(C(C)=O)CN2S(=O)(=O)c2ccc(C)cc2)cc1OC | 83.8 |
| Cc1ccccc1S(=O)(=O)N1[C@@H](c2ccc(Br)cc2)C(C(=O)O)=CC[C@H]1c1ccc(Cl)cc1 | 86.6 |
| COc1ccc([C@@H]2C[C@@H](SCc3ccc(C(C)(C)C)cc3)[C@H](C(=O)O)CN2S(=O)(=O)c2ccccc2)cc1 | 53 |
| COc1ccc([C@@H]2C[C@@H](SCCC(C)C)[C@H](C(=O)O)CN2S(=O)(=O)c2ccc(Cl)cc2)cc1 | 81.4 |
